{
  "source": "patent US20060193832A1",
  "about": "“Use of the sodium iodine symporter to effect uptake of iodine” (priority 2005, published 2006)",
  "key": {"[1]": {"tested_on": "NIS-expressing tumor tissue", "test": "Gamma camera imaging of 188ReO4 uptake in Ad-NIS injected tumor bearing mouse", "format": "in vivo", "conditions": "2 hours after systemic administration", "text": "As discussed in detail below, the beta particle emitted from ^188Re is more energetic than that of ^131I and can travel a further distance in tissue, thus may be well suited to use in the context of larger tumors that are found in human head and neck cancer."}, "NIS [2]": {"target": "T1, NIS (Homo sapiens, UniProt Q92911)", "T1 sequence (Q92911 1-643)": "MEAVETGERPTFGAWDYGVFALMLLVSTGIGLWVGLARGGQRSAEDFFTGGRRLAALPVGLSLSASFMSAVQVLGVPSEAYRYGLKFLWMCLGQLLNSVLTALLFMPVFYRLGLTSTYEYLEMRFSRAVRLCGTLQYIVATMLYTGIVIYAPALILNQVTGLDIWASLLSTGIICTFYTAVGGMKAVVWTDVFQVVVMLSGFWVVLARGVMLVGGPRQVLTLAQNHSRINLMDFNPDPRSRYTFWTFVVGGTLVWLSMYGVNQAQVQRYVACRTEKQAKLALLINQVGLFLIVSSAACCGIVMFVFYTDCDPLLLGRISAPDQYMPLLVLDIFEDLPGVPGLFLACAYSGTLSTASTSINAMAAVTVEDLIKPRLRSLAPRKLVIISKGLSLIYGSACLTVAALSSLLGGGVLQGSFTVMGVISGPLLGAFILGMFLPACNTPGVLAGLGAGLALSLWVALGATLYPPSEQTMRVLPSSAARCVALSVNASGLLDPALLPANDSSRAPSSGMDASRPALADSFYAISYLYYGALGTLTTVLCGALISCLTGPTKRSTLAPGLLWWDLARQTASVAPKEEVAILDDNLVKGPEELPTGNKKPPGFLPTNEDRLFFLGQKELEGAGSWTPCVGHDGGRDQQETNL", "conditions": "stably transfected cell lines; cited from earlier work"}, "[3]": {"conditions": "radionuclide half-life; cited from earlier work"}, "[4]": {"tested_on": "NIS-expressing F98 gliomas", "conditions": "rats bearing NIS-expressing F98 gliomas; cited from earlier work"}, "[5]": {"tested_on": "hNIS stable expressing FaDu transfectants", "experimental": "In Vivo Tumor Growth. […] Twenty-four hours later, cells were trypsinized, washed, and resuspended in PBS. […] After allowing 48 hours for engraftment of tumor cells, 1 mCi of [^131I] iodide was injected intraperitoneally into each mouse. Second, to assess the effects of genetically targeted radiotherapy on established tumors, 5×10^6 stably transfected NIS-expressing FaDu cells or their parental counterparts were injected subcutaneously into both flanks of athymic mice. The tumors were allowed to grow to an average tumor diameter of 5 mm and then 1 mCi of [^131I] iodide was injected intraperitoneally into each mouse. In both experiments, tumor sizes were recorded in three dimensions every 2 days. Average tumor diameters were determined by taking the cube root of tumor width×length×depth. The experiments were terminated when the average tumor diameter exceeded 10 mm. All animal studies were performed in accordance with the Public Health Service policy on Humane Care and Use of Laboratory Animals, the NIH Guide for the Care and Use of Laboratory Animals, and the Animal elfare Act (7 U.S.C. et seq.); the animal use protocol was approved by the Institutional Animal Care and Use Committee (IACUC) of the University of Iowa."}, "[6]": {"tested_on": "NIS expressing human tumor xenograft of FaDu carcinoma cells", "conditions": "4.2 Gy delivered to the tumor", "description": "To begin to address this issue, the inventors have established a method to estimate dosimetry based on gamma camera imaging of ^131I uptake and retention using a pinhole collimator. […] Data collected from the pinhole collimator gamma camera imaging has enabled us to calculate doses delivered to tumor xenografts and therefore to perform comparative dosimetry between different isotopes such as ^131I and ^188ReO4—."}, "NIS [7]": {"target": "T1, NIS", "test": "Perchlorate inhibition of NIS-mediated radioiodide uptake in FaDu cells", "format": "cell-based", "parameters": "The full-length hNIS cDNA was digested from this plasmid and ligated into the pacAd5 CMV K—N pA shuttle vector; expressed in transfected cells", "conditions": "1 mM sodium perchlorate added before radioiodide, Ad-hNIS-transduced FaDu cells", "experimental": "Radioiodide Uptake and Efflux. Cells (2.5×10^5) were seeded in each well of 12-well plates on day 1. Twelve hours later, 40 multiplicity of infection (MOI; the ratio of infectious viral particles to cells) of adenovirus was added to each well. Twenty-four hours later, 2 μCi of sodium [^125I] iodide (New England Nuclear, North Billerica, Mass.) was added to each well, and the plates were incubated for 1 hour at 37° C. […] Medium was then removed, and cells were washed once with PBS. Plates were then exposed overnight on a phosphor imaging screen, and signal intensity was determined with a Typhoon 9400 imager (Amersham Biosciences, Buckinghamshire, England). Signal intensity was compared with that of standards of known activity. […] To determine the rate of [^125I] iodide efflux from cells, uptake was performed as previously described."}, "Ad-NIS infected cells": {"tested_on": "Ad-NIS infected cells", "test": "Iodide retention with recombinant LPO during the efflux period", "format": "cell-based", "conditions": "recombinant LPO present during efflux period, 2 hours of efflux", "text": "The inventors are also exploring other novel methods to enhance iodine retention in cells and, to this end, they have examined the effect of lactoperoxidase (LPO) on iodide organification and retention in NIS+ cell populations."}, "[8]": {"conditions": "sixty days after [131I] iodide administration"}},
  "note": "“Also recorded” adds a separate entry of the source.",
  "data": [
    {"compound": "[O]=[Re](=[O])(=[O])[O-]", "note": "[^188ReO4, Perrhenate]", "values": [
      {"measurement": "tissue accumulation of 188ReO4-", "setting": "[1]", "result": "thyroid, stomach, and NIS-expressing tumor tissue, also display high affinity"},
      {"measurement": "in vitro uptake as compared to iodide", "setting": "NIS [2]", "result": "two- to three-fold higher"},
      {"measurement": "t1/2", "setting": "[3]", "result": 16.9, "unit": "h"},
      {"measurement": "survival versus 131I treatment", "setting": "[4]", "result": "increased survival"}
    ]},
    {"compound": "[131I-].[Na+]", "note": "[[^131I] iodide, sodium [^131I] iodide]", "values": [
      {"measurement": "tumors with complete response (shrunk beyond the limit of detection)", "setting": "[5]; NIS-FaDu established tumors (5 mm), 1 mCi [131I] iodide i.p.", "result": "eight of eight"},
      {"measurement": "local adverse effects of radiotherapy", "setting": "[5]; mice given 1 mCi [131I] iodide i.p.", "result": "No local adverse effects"},
      {"measurement": "tumors recurred", "setting": "[5]; [8]", "result": "two"},
      {"measurement": "tumors remaining in complete remission", "setting": "[5]; [8]", "result": "six"},
      {"measurement": "tumor outcome at the delivered dose", "setting": "[6]", "result": "remission of this tumor"}
    ]},
    {"compound": "[Na+].[O-][Cl+3]([O-])([O-])[O-]", "note": "[Perchlorate, sodium perchlorate]", "values": [
      {"measurement": "effect on NIS-mediated [125I] iodide accumulation", "setting": "NIS [7]", "result": "inhibited iodide accumulation; also recorded: inhibits NIS-mediated [^125I] iodide uptake"}
    ]},
    {"compound": "lactoperoxidase [LPO]", "values": [
      {"measurement": "cell-associated iodide during efflux", "setting": "Ad-NIS infected cells", "result": "significantly longer retention times; also recorded: increased levels of cell-associated iodide"}
    ]}
  ]
}
